In patent US20230293458A1, “MULTIBIOTIC AGENTS AND METHODS OF USING THE SAME” (Flagship Pioneering Innovations V, Inc., priority 2017, published 2023):

Key:
[1] = Stability of multibiotic agents in Simulated Gastric Fluid (SGF); type: in vitro ADME; settings: simulated gastric fluid pH 1.6 with pepsin, 37° C., 1 μM
In short: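 Compounds were incubated at 1 μM final at 37 °C in simulated gastric fluid containing NaCl, pH 1.6, with FaSSIF powder and 0.1 mg/mL pepsin. Aliquots were taken at T0 and at regular intervals and quenched with acetonitrile. Degradation rates were determined by LC/MS.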

[2] = Stability of multibiotic agents in Simulated Intestinal Fluid (SIF); type: in vitro ADME; settings: simulated intestinal fluid pH 6.7 with pancreatin, 37° C., 1 μM
In short: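 Compounds at 1 μM final (from 1 mM DMSO stock) incubated at 37 °C with agitation in fresh SIF (FaSSIF plus pancreatin in pH 6.7 phosphate buffer). Aliquots taken at T0 and regular intervals, quenched with 1 volume acetonitrile. Degradation rate determined by LC/MS.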

| SMILES | Assay 2 (SGF) (% Remaining @ 4 hours) [1] | Assay 3 (SIF) (% @ Remaining 4 hours) [2] |
| --- | --- | --- |
| O=C(CCc1c[nH]c2ccccc12)O[C@H]1[C@@H](OC(=O)CCc2c[nH]c3ccccc23)COC(O)[C@@H]1OC(=O)CCc1c[nH]c2ccccc12 (stereo partly drawn) [Example 148, [(3S,4S,5R)-6-hydroxy-4,5-bis[3-(1H-indol-3-yl)propanoyloxy]tetrahydropyran-3-yl] 3-(1H-indol-3-yl)propanoate] | C (>75% of the tested compound remaining) | A (<25% of the tested compound remaining) |
| CCC(=O)OC1OC[C@H](OC(=O)CC)[C@H](OC(=O)CC)[C@H]1OC(=O)CC (stereo partly drawn) [Example 149, [(3S,4S,5R)-4,5,6-tri(propanoyloxy)tetrahydropyran-3-yl] propanoate] | C (>75% of the tested compound remaining) | C (>75% of the tested compound remaining) |
| CCCC(=O)OC1O[C@@H](C)[C@H](OC(=O)CCC)[C@@H](OC(=O)CCC)[C@H]1OC(=O)CCC (stereo partly drawn) [Example 152, [(2S,3S,4R,5R)-4,5,6-tri(butanoyloxy)-2-methyl-tetrahydropyran-3-yl] butanoate] | C (>75% of the tested compound remaining) | C (>75% of the tested compound remaining) |
| C[C@@H]1OC(O)[C@H](OC(=O)Cc2c[nH]c3ccccc23)[C@H](OC(=O)Cc2c[nH]c3ccccc23)[C@H]1OC(=O)Cc1c[nH]c2ccccc12 (stereo partly drawn) [Example 155, [(2S,3S,4R,5R)-6-hydroxy-4,5-bis[[2-(1H-indol-3-yl)acetyl]oxy]-2-methyl-tetrahydropyran-3-yl] 2-(1H-indol-3-yl)acetate] | C (>75% of the tested compound remaining) | C (>75% of the tested compound remaining) |
| CCCC(=O)O[C@@H]1[C@H](OC(=O)CCC)[C@H](C)OC(O)[C@H]1OC(=O)CCC (stereo partly drawn) [Example 156, [(2S,3R,4R,5S)-4,5-di(butanoyloxy)-6-hydroxy-2-methyl-tetrahydropyran-3-yl] butanoate] | C (>75% of the tested compound remaining) | A (<25% of the tested compound remaining) |
| CCC(=O)OC1O[C@@H](C)[C@@H](OC(=O)CC)[C@@H](OC(=O)CC)[C@@H]1OC(=O)CC (stereo partly drawn) [Example 157, [(2S,3R,4R,5S)-2-methyl-4,5,6-tri(propanoyloxy)tetrahydropyran-3-yl] propanoate] | C (>75% of the tested compound remaining) | A (<25% of the tested compound remaining) |
| CCCC(=O)OC[C@H]1OC(OC(=O)CCC)[C@H](OC(=O)CCC)[C@@H](OC(=O)CCC)[C@@H]1OC(=O)CCC (stereo partly drawn) [Example 160, [(2R,3R,4S,5R)-3,4,5,6-tetra(butanoyloxy)tetrahydropyran-2-yl]methyl butanoate] | C (>75% of the tested compound remaining) | A (<25% of the tested compound remaining) |
| CCCC(=O)OC[C@H]1OC(O)[C@H](OC(=O)CCC)[C@@H](OC(=O)CCC)[C@@H]1OC(=O)CCC (stereo partly drawn) [Example 161, [(2R,3R,4S,5R)-3,4,5-tri(butanoyloxy)-6-hydroxy-tetrahydropyran-2-yl]methyl butanoate] | C (>75% of the tested compound remaining) | A (<25% of the tested compound remaining) |
| CC(=O)OCC1(OC(C)=O)OC[C@@H](OC(C)=O)[C@H](OC(C)=O)[C@@H]1OC(C)=O (stereo partly drawn) [Example 162, [(3S,4S,5R)-2,3,4,5-tetraacetoxytetrahydropyran-2-yl]methyl acetate] | C (>75% of the tested compound remaining) | B (25-75% of the tested compound remaining) |
| CCCC(=O)OCC1(OC(=O)CCC)OC[C@@H](OC(=O)CCC)[C@H](OC(=O)CCC)[C@@H]1OC(=O)CCC (stereo partly drawn) [Example 163, [(3S,4S,5R)-2,3,4,5-tetra(butanoyloxy)tetrahydropyran-2-yl]methyl butanoate] | B (25-75% of the tested compound remaining) | A (<25% of the tested compound remaining) |
